Data on 14 molecules can be found in paper PMC3917282, “Alkaloids from the Mangrove-Derived Actinomycete Jishengella endophytica 161111” (Marine Drugs, 2014).

≈ marks a conversion by molar mass, not a printed value. Read-outs that look alike come from different tables or passages of the source. Bounds are passed on as bounds.

In data set [1] the test system is influenza virus (A/Puerto Rico/8/34 (H1N1), PR/8). The data set can be described thus: organism not typed. Type of data set: cell-based. The note with it: for IC50: read-out: IC50 against H1N1 (CPE inhibition); for selectivity index (SI): H1N1 IC50 and MDCK CC50.
Another data set in a line: in vitro. The note with it: dog.
Setting [2] is: MDCK cells infected with A/Puerto Rico/8/34 (H1N1), 48 h post-infection, crystal violet staining.

For `OC[C@H](O)[C@@H](O)Cc1cncc(-c2ccco2)n1` [Compound 1, 2-(furan-2-yl)-6-(2S,3S,4-trihydroxybutyl)pyrazine], in data set [1] (setting [2]), the half-inhibitory concentration (IC50) (as a rule, the midpoint of a concentration-inhibition curve) is over 50 µg/mL. Still for that read-out and setting: the result for `OC[C@H](O)[C@@H](O)Cc1cnc(-c2ccco2)cn1` [Compound 2, 2-(furan-2-yl)-5-(2S,3S,4-trihydroxybutyl)pyrazine] reads over 50 µg/mL; that for `CC(C)C[C@H]1C(=O)OCc2ccc(C=O)n21` [Compound 3, (S)-4-isobutyl-3-oxo-3,4-dihydro-1H-pyrrolo[2,1-c][1,4]oxazine-6-carbaldehyde], over 50 µg/mL; that for `CC(C)[C@H]1C(=O)OCc2ccc(C=O)n21` [Compound 4, (S)-4-isopropyl-3-oxo-3,4-dihydro-1H-pyrrolo[2,1-c][1,4]oxazine-6-carbaldehyde], over 50 µg/mL. With `O=Cc1ccc2n1[C@@H](Cc1ccccc1)C(=O)OC2` [Compound 6, (S)-4-benzyl-3-oxo-3,4-dihydro-1H-pyrrolo[2,1-c][1,4]oxazine-6-carbaldehyde], the half-inhibitory concentration (IC50) in data set [1] (setting [2]) is over 50 µg/mL. Consider `O=C(O)c1cc2c([nH]c3ccccc32)c(-c2ccc(CO)o2)n1` [Compound 7, flazin], for which the 50% inhibitory concentration (IC50) in data set [1] (setting [2]) was over 50 µg/mL. Take `OCc1ccc(-c2nccc3c2[nH]c2ccccc23)o1` [Compound 8, perlolyrine]: in data set [1], the “selectivity index (SI)” value was 3.0. In addition, the IC50 in data set [1] (setting [2]) came to 38.3 µg/mL (≈ 145 µM). In the data set “in vitro”, the CC50 at 36 h is 116 ± 12.1 µg/mL (≈ 440 µM). In the case of `Oc1nccc2c1[nH]c1ccccc12` [Compound 9, 1-hydroxy-β-carboline], the “selectivity index (SI)” value in data set [1] is recorded as 16.1. For the same molecule, in data set [1] (setting [2]), the IC50 amounted to 25 µg/mL (≈ 136 µM). Moreover, the CC50 at 36 h in the data set “in vitro” was 403 ± 31.4 µg/mL (≈ 2190 µM). With `Cc1cc2nc3[nH]c(=O)[nH]c(=O)c3nc2cc1C` [Compound 10, lumichrome], in data set [1] (MDCK, 48 h), the IC50 came to 39.7 µg/mL (≈ 164 µM). For the molecule `O=Cc1c[nH]c2ccccc12` [Compound 11, 1H-indole-3-carboxaldehyde], the “selectivity index (SI)” value in data set [1] is recorded as 11.4. Besides, in data set [1] (setting [2]), the IC50 amounted to 45.9 µg/mL (≈ 316 µM). This molecule also returned a CC50 at 36 h in the data set “in vitro” of 522 ± 24.5 µg/mL (≈ 3600 µM). Take `O=C(CO)c1c[nH]c2ccccc12` [Compound 12, 2-hydroxy-1-(1H-indol-3-yl)ethanone]: the IC50 in data set [1] (setting [2]) was over 50 µg/mL. For the molecule `COCc1ccc(C=O)[nH]1` [Compound 13, 5-(methoxymethyl)-1H-pyrrole-2-carbaldehyde], the 50% inhibitory concentration (IC50) in data set [1] (setting [2]) is over 50 µg/mL. For `NC(=O)c1ncn([C@@H]2O[C@H](CO)[C@@H](O)[C@H]2O)n1` [Ribavirin, ribavirin, reference compound], in data set [1], the “selectivity index (SI)” value amounted to 32.2. In addition, the IC50 in data set [1] (setting [2]) was determined as 23.1 µg/mL (≈ 94.6 µM). The molecule also registered a CC50 at 36 h in the data set “in vitro” of 744 ± 18.5 µg/mL (≈ 3050 µM). As for “(4S)-4-(2-methylbutyl)-3-oxo-3,4-dihydro-1H-pyrrolo[2,1-c][1,4]oxazine-6-carbaldehyde [Compound 5]”, the “IC50 against H1N1 (CPE inhibition)” value in data set [1] (setting [2]) was over 50 µg/mL.
